assay: Human HepG2 cell viability assay in 384 well format; assay type: toxicity, cell-based; parameters: dose 125 nL, time 70.5 hour; concentration not given beside the values; conditions: HepG2 cells, read-out: Inhibition

| SMILES | cytotoxicity at 70.5 h |
| --- | --- |
| CS(=O)(=O)Nc1cnn(Cc2cccc(Cl)c2)c1 | -7.33% |
| COc1ccc(OC)c(C(C)NS(=O)(=O)c2cn(C)nc2C)c1 (stereo not drawn) | -3.29% |
| CCn1cc(NS(=O)(=O)c2ccc(Br)s2)c(C(=O)NCC(C)C)n1 | -0.598% |
| Cc1nn(C)cc1-c1cc(C(F)F)nc2sc(C(N)=O)c(N)c12 | 7.12% |
| Cc1c(Br)c(C(F)F)nn1C(C)C(=O)O (stereo not drawn) | -10.2% |
| COC(=O)c1ccn(COc2ccccc2Cl)n1 | -9.21% |
| Cc1c(-c2cc(C(F)F)nc3sc(C(N)=O)c(N)c23)cnn1C | -1.99% |
| Cc1c(-c2cc(-c3cnn(C)c3C)n(CC(=O)NC3CC3)n2)cnn1C | 19.6% |
| COc1cc(NC(=O)NCC2CCCO2)cc(OC)c1 (stereo not drawn) | 16.9% |
| Cn1c(=O)n(C)c2nc(Br)c(CC(=O)c3ccccc3)n2c1=O | -4.55% |
| Fc1ccccc1NCc1nc2n(n1)CCCCC2 | -19.3% |
| Cc1ccc(C)c(NCc2nc3n(n2)CCCCC3)c1 | -15.6% |
| CCOc1ccc(N2CCCN=C2NC(=O)c2ccc(Cl)cc2)cc1 | -1.22% |
| CN1CC(Oc2ccccc2)=NC(SCC(=O)Nc2ccccc2Cl)=N1 | 5.43% |
| OC1=C2C(=Nc3n[nH]c(O)c3C2c2ccccc2Cl)CCC1 (stereo not drawn) | 9.03% |
| CSc1nc(N)c2c(n1)N=C1COC(O)=C1C2c1cccc(O)c1 (stereo not drawn) | 0.964% |
| Cc1cccc(NC(C)C(=O)Nc2nccs2)c1 (stereo not drawn) | -14.6% |
| CC(=O)N1CCN(c2ncnc3cc4c(cc23)OCCO4)CC1 | -6.91% |
| CC(C)C(=O)N1CCN(c2ncnc3cc4c(cc23)OCCO4)CC1 | -1.97% |
| Cc1nn(C)c2c(N3CCN(C(=O)C(C)C)CC3)ncnc12 | -5.46% |
| Cc1ccccc1C(=O)NC(C)c1cnn(C)c1 (stereo not drawn) | 27.8% |

| SMILES | cytotoxicity at 70.5 h |
| --- | --- |
| CCn1cc(C(=O)N2CCOCC2)cn1 | -3.04% |
| CC(C)N1CCC(c2nccnc2Nc2cnccn2)CC1 | 17.9% |
| Cc1cncnc1C1CCN(CC(N)=O)CC1 | -4.96% |
| O=C(c1n[nH]c(=O)c2ccccc12)N1CCC(O)(CN2CCOCC2)C1 (stereo not drawn) | 14.5% |
| Nc1cccc(C2CN(C(=O)CN3CCOCC3)CCO2)n1 (stereo not drawn) | -4.5% |
| CO[C@H]1CN(S(=O)(=O)c2ccc(F)cc2)C[C@@]12CCCO2 | 36.6% |
| CCc1nnc(Nc2cc(C)nc(C3CCN(c4ccncn4)C3)n2)s1 (stereo not drawn) | 12.4% |
| O=C(NCCc1ccc(F)cc1)C1CN(C(=O)Cn2cncn2)C1 | -13.2% |
| CC(=O)N1CCOC(c2c(C(=O)NC(C)(C)C)sc3ccccc23)C1 (stereo not drawn) | -13.1% |
| Cc1nn(C)cc1NC(=O)CC1CCN(C(=O)Cc2ccccc2)CC1 | -4.98% |
| Cc1c[nH]nc1C1CCN(C(=O)C2CCC2)CC1 | -8.63% |
| CC(C)S(=O)(=O)N1C[C@@H](c2ccccc2)[C@H]2[C@H]1CCCCCN2C | -5.45% |
| COc1ccc(-c2cc(C(=O)NCCn3ccnc3)n(C)n2)cc1 | 19.2% |
| CNc1cc(C)nc(C2CCN(CCO)CC2)n1 | -6.23% |
| COCCN1CCN(c2nc(O)cc(Cc3ccccc3F)n2)CC1 | -5.81% |
| O=C1CCC[C@]2(CN(S(=O)(=O)C3CCCCC3)C[C@H]2c2cccnc2)N1 | -3.41% |
| CC(=O)N1CCC(c2cccc(-c3cccc(C(=O)O)c3)n2)CC1 | -0.201% |
| CC(=O)N1CCC(c2cccc(Oc3ccccc3)n2)CC1 | -3.81% |
| COCC(=O)N1CCC(c2cc(N(C)C)cc(C)n2)CC1 | 25.5% |
| Cc1ccc(N2CCOC(C)(C(=O)N(C)C)C2)nn1 (stereo not drawn) | -6.16% |
| Cc1nn(C)cc1NC(=O)CC1CCN(CCc2ccccc2)CC1 | -7.48% |

| SMILES | cytotoxicity at 70.5 h |
| --- | --- |
| Cc1cc(N2CCOC(C)(C(=O)N(C)C)C2)ncn1 (stereo not drawn) | -6.62% |
| O=C(c1ccc(=O)[nH]n1)N1CCNCC1c1ccccc1 (stereo not drawn) | -2.98% |
| NCc1cccc(-c2cccnc2C(=O)NCCCN2CCOCC2)c1 | -3.76% |
| CNc1nccnc1C1CN(Cc2ccc3[nH]ccc3c2)CCO1 (stereo not drawn) | -2.11% |
| CC(C)(C)n1nnnc1CN(Cc1ccccc1)Cc1ccccc1Cl | -5.12% |
| O=C(c1cc2c(s1)CCC2)N1CCC(c2ccncc2)CC1 | 15.8% |
| COCCNc1nnc(-c2ccccn2)s1 | -4.27% |
| COc1ncc(CN(C)C2CCN(C(C)C)CC2)cn1 | 8.08% |
| c1cc(-c2cnc(NC3CC3)nc2[C@H]2CCCO2)ccn1 | -7.2% |
| c1cc(-c2cncc(C3CCNCC3)n2)n[nH]1 | -6.89% |
| CC(C)(C)C(=O)N1CCCC1c1nccnc1Cl (stereo not drawn) | -8.54% |
| O=C(NCc1ccccn1)c1cnc(C2CCCN2)cn1 (stereo not drawn) | -4.69% |
| Cc1nccc(C2CCCN(C(=O)c3cncnc3)C2)n1 (stereo not drawn) | -5.03% |
| CC(=O)N1CCCC(c2nccnc2-c2ccc(CO)cc2)C1 (stereo not drawn) | -5.35% |
| COCC(=O)N1CCN(C)C(=O)C(Cc2ccccc2-c2cccs2)C1 (stereo not drawn) | 1.61% |
| CC(C)(C)n1nnnc1CN(Cc1ccccc1)Cc1ccc(Cl)cc1 | 8.17% |
| COCCN1CCCC(c2ncc(C(=O)N(C)C)c(C)n2)C1 (stereo not drawn) | -1.17% |
| Cn1c(=O)cc(C(=O)NC(Cc2ccsc2)c2cccnc2)[nH]c1=O (stereo not drawn) | -3.19% |
| Cc1cnc(-c2nc(O)c3c(n2)CN(C(=O)C2CCCC2)CC3)cn1 | -1.77% |
| COc1ccccc1-c1ccccc1CC1(C(=O)O)CCNCC1 | 0.76% |
| Fc1cccc(CN2CCC(c3noc(-c4ccccn4)n3)CC2)c1F | -0.639% |

| SMILES | cytotoxicity at 70.5 h |
| --- | --- |
| O=C(Cn1cccc2cc(-c3ccc(F)cc3)nc1-2)N1CCC(O)CC1 | 3.41% |
| CC(=O)N[C@@H]1CN(C(=O)CC2CCOCC2)C[C@H]1O | -1.61% |
| Clc1ccc(CN(CCN2CCOCC2)Cc2cccnc2)c(Cl)c1 | -5.57% |
| Cc1ncc(CN(C)C)c(C2CCCN2c2ncccn2)n1 (stereo not drawn) | -7.95% |
| Cc1cc(CCC2CN(CC3(O)CCCCC3)CCO2)ncn1 (stereo not drawn) | 19.4% |
| O=C(Cc1cccc(O)c1)N1CCCC(O)(CN2CCCC2)CC1 (stereo not drawn) | -6.1% |
| c1ccc(CN2CCN(Cc3cnc(C4CCCCO4)nc3)CC2)cc1 (stereo not drawn) | 1.9% |
| c1nc(C2CCCCO2)ncc1CN1CCOCC1 (stereo not drawn) | -4.04% |
| CC(=O)N1CCCC(Cc2cnc(-c3c(C)nn(C)c3C)cn2)C1 (stereo not drawn) | -7.67% |
| COc1cccc(S(=O)(=O)N2C[C@H](OC)[C@]3(CCCO3)C2)c1 | -4.33% |
| CO[C@H]1CN(S(=O)(=O)c2ccccc2F)C[C@@]12CCCO2 | -7.14% |
| Cc1cc(C2CCNCC2)nc(-c2ccsc2)n1 | -8.24% |
| CC(C)(C)C(=O)N1C[C@H](c2ccsc2)[C@H]2CN(C3CCCCC3)CC[C@H]21 | -3.27% |
| CNC(=O)c1cc(C2CCCNC2)n[nH]1 (stereo not drawn) | 21.1% |
| CNCC(=O)N1CCCC1c1n[nH]cc1-c1ccccc1F (stereo not drawn) | 0.833% |
| CC1CCN(C(=O)C2(Cc3cc(C4CCOC4)no3)CCNCC2)CC1 (stereo not drawn) | -1.77% |
| NCC(=O)N1CCCC1c1n[nH]cc1-c1ccccc1F (stereo not drawn) | 25.4% |
| CCn1cncc1CN1CCN(CC2(c3ccc(C)cc3)CC2)CC1 | 12% |
| Cc1cc(C)nc(C2CCCNC2)n1 (stereo not drawn) | 17.9% |
| CN(Cc1cccc2cccnc12)C1CCS(=O)(=O)C1 (stereo not drawn) | 24.2% |
